Counter-ions that a name gives are not always drawn.
Columns and labels:
[1] = molecular target: benzodiazepine receptor (GABAA receptor complex), cerebral cortex membranes; test: In vitro inhibition of 3H-flunitrazepam (3H-FNM) binding; conditions: inhibition of specific 3H-FNM (1 nM) binding, rat cerebral cortex membranes
Protocol: The GABA recognition site and the benzodiazepine modulatory unit can selectively be labelled with ^3H-muscimol and ^3H-flunitrazepam, respectively.
13A: In vitro inhibition of ^3H-flunitrazepam (^3H-FNM) binding
Preparations are performed at 0-4° C. unless otherwise indicated. Cerebral cortex from male Wistar rats (150-200 g) is homogenised for 5-10 sec in 20 ml Tris-HCl (30 mM, pH 7.4) using an Ultra-Turrax homogeniser. The suspension is centrifuged at 27,000× g for 15 min and the pellet is washed three times with buffer (centrifuged at 27,000× g for 10 min). The washed pellet is homogenized in 20 ml of buffer and incubated on a water bath (37° C.) for 30 min to remove endogenous GABA and then centrifuged for 10 min at 27,000× g. The pellet is then homogenized in buffer and centrifuged for 10 min at 27,000× g. The final pellet is resuspended in 30 ml buffer and the preparation is frozen and stored at −20° C.
The membrane preparation is thawed and centrifuged at 2° C. for 10 min at 27,000× g. The pellet is washed twice with 20 ml 50 mM Tris-citrate, pH 7.1 using an Ultra-Turrax homogeniser and centrifuged for 10 min at 27,000× g. The final pellet is resuspended in 50 mM Tris-citrate, pH 7.1 (500 ml buffer per g of original tissue), and then used for binding assays. Aliquots of 0.5 ml tissue are added to 25 μl of test solution and 25 μl of ^3H-FNM (1 nM, final concentration), mixed and incubated for 40 min at 2° C., Non-specific binding is determined using Clonazepam (1 μM, final concentration). After incubation the samples are added 5 ml of ice-cold buffer and poured directly onto Whatman GFIC glass fibre filters under suction and immediately washed with 5 ml ice-cold buffer. The amount of radioactivity on the filters is determined by conventional liquid scintillation counting. Specific binding is total binding minus non-specific binding.
The test value will be given as IC50 (the concentration (μM) of the test substance which inhibits the specific binding of ^3H-FNM by 50%). [formula]
Co is specific binding in control assays, and
Cx is the specific binding in the test assay.
(The calculations assume normal mass-action kinetics).

[2] = system: GABAA receptor-ion channel complex (forebrain); test: In vivo inhibition of 3H-FNM binding; parameters: species or system mouse; conditions: female NMRI mice, test substance i.v., inhibition of specific [3H]FNM binding in forebrain
Protocol: 13B: In vivo inhibition of ^3H-FNM binding
[^3H]FNM can also be used for in vivo receptor labelling studies in mouse. Accumulation of [^3H]FNM binding will occur all over the brain as GABAA receptors are widely distributed.
All test substances used are solutions prepared in 10% TWEEN 80. Groups of three female NMRI mice (25 g) are injected i.v. via the tail vein with 5.0 μCi of [3H]FNM in 0.2 ml saline. Fifteen min after injection with [^3H]FNM the test substance is administered i.v. Twenty min after injection with [^3H]FNM, mice are killed by decapitation, the forebrains rapidly excised and homogenized in 12 ml of ice-cold 50 mM Tris-citrate, pH 7.1 using an Ultra-Turrax homogenizer. Three aliquots of 1 ml are immediately filtered through GF/C glass fibre filters and washed with 2×5 ml of ice-cold buffer. The amounts of radioactivity on the filters and in 200 μl of the homogenate are determined by conventional scintillation counting. Groups of untreated mice serves as controls. To determine non-specific binding groups of mice are injected with Clonazepam (25 mg/kg) i.p. 10 min before [3H]FNM injection. Specific binding is the amount of binding in controls minus the amount of binding in Clonazepam treated mice.
The ED50 value is determined from dose response curves. […] [formula]
where Co is specific binding in controls and Cx is the specific binding in mice treated with test substance.

[3] = system: clonic convulsions induced by pentylenetetrazol (PTZ); test: PTZ clonic convulsions; format: in vivo; conditions: female NMRI mice; for ED100: i.v., dose increasing the PTZ threshold to 100 mg PTZ/kg (linear regression); for ptz threshold at 30 mg/kg: test substance 30 mg/kg i.v., PTZ infused after 5 min, vehicle threshold 37-39 mg PTZ/kg
Protocol: The purpose of this test is to show antagonism of clonic convulsions induced by pentylenetetrazol (PTZ). PTZ induces clonic convulsions in mice after i.v. infusion. Antagonism of PTZ-induced convulsions is a measure for the agonistic character of ligands for the benzodiazepine recognition site.
Female NMRI mice (Bomholdtgaard, Ry), 20 g, 6 mice in each group are administered i.v. with vehicle or test substance. After five minutes the PTZ-solution is infused intravenously at a speed of 0.7 ml/minute through a cannula placed in the tail vein. The time from initiation of the infusion to appearance of clonic convulsions is recorded.
The dose of PTZ required for inducing convulsion in each mouse is calculated as PTZ/kg body weight. Means ±sd for each experimental group of 6 mice is calculated. ED100 is calculated by linear regression expressing the dose increasing the PTZ threshold to 100 mg PTZ/kg.
The threshold of vehicle treated controls is in the range of 37-39 mg PTZ/kg. As a control in each series of experiments PTZ is infused into 6 vehicle treated mice.

SMILES	melting point	further results
CCOC(=O)N1CCN(Cc2cccc(-n3cnc4cc(-c5ccoc5)ccc43)c2)CC1 (as salt: HCl)	248 to 250 °C	
CCN1CC=C(c2cccc(-n3cnc4cc(C(=O)OCCOC)ccc43)c2)CC1 (as salt: HCl)	179 to 180 °C	
COC(=O)c1ccc2c(c1)ncn2-c1cccc(Cn2ccnc2)c1 [Compound 1l, Methyl 1-(3-(1-imidazolylmethyl)-phenyl)-benzimidazole-5-carboxylate]		IC50 [1]: 12 nM; In vivo binding ED50 [2]: 0.75 mg/kg; ED100 [3]: 17 mg/kg; ptz threshold at 30 mg/kg [3]: 120 mg/kg
CN1CCCC1COC(=O)c1cccc(-n2cnc3cc(-c4ccoc4)ccc32)c1 (centres unmarked) (as salt: HCl)	198 to 200 °C	
CCOC(=O)CN1CCN(c2cccc(-n3cnc4cc(C(=O)OCCOC)ccc43)c2)CC1 (as salt: HCl) [Compound 1b, 2-Methoxyethyl 1-(3-(4-(ethoxy-carbonyl-methyl)-1-piperazinyl)-phenyl)-benzimidazole-5-carboxylate]	161 to 163 °C	
CCN1C(C)CN(c2cccc(-n3cnc4cc(C(=O)OCCOC)ccc43)c2)CC1C (centres unmarked) (as salt: HCl)	202 to 208 °C	
CCOC(=O)CN1C(C)CN(c2cccc(-n3cnc4cc(C(=O)OCCOC)ccc43)c2)CC1C (centres unmarked) (as salt: HCl)	90 to 94 °C	
COC(=O)c1ccc2c(c1)ncn2-c1cccc(N2CCN(CC#N)CC2)c1	160 to 162 °C	
COC(=O)c1ccc2c(c1)ncn2-c1cccc(N2CCN(Cc3ccccc3)CC2)c1 (as salt: HCl)	153 to 163 °C	
COC(=O)c1ccc2c(c1)ncn2-c1cccc(N2CCN(CC(=O)O)CC2)c1 (as salt: HCl)	210 to 220 °C	
CCOC(=O)N1CCN(c2cccc(-n3cnc4cc(-c5ccoc5)ccc43)c2)CC1 [Compound 7i, 5-(3-Furanyl)-1-(3-(1-ethoxycarbonyl-4-piperazinyl)-phenyl)-benzimidazole]	131 to 132 °C	IC50 [1]: 0.8 nM; In vivo binding ED50 [2]: 1.8 mg/kg; ED100 [3]: 2.5 mg/kg; ptz threshold at 30 mg/kg [3]: 140 mg/kg
CCOC(=O)CN1CCN(Cc2cccc(-n3cnc4cc(-c5ccoc5)ccc43)c2)CC1 [Compound 7f, 5-(3-Furanyl)-1-(3-(1-ethoxycarbonylmethyl-4-piperazinylmethyl)-phenyl)-benzimidazole]		IC50 [1]: 0.6 nM; In vivo binding ED50 [2]: 0.17 mg/kg; ED100 [3]: 2.7 mg/kg; ptz threshold at 30 mg/kg [3]: 120 mg/kg
CCN(CC)C(=O)CN1CCN(c2cccc(-n3cnc4cc(C(=O)OCCO)ccc43)c2)CC1 (as salt: HCl)	149 to 154 °C	
COCCOC(=O)c1ccc2c(c1)ncn2-c1cccc(C2CCN(C(C)=O)CC2)c1 (as salt: HCl)	139 to 140 °C	
CC(C)(C)OC(=O)CN1CCN(c2cccc(-n3cnc4cc(-c5ccoc5)ccc43)c2)CC1	131 to 132 °C	
COCCOC(=O)c1ccc2c(c1)ncn2-c1cccc(-n2cnc(C(=O)OC)c2)c1 (as salt: HCl)	132 to 134 °C	
COC(=O)c1ccc2c(c1)ncn2-c1cccc(N2CCNCC2)c1 (as salt: HCl)	179 to 202 °C	
COCCOC(=O)c1ccc2c(c1)ncn2-c1cccc(C2CCN(C)CC2)c1 (as salt: HCl)	123 to 125 °C	
CCOC(=O)CN1CCN(c2cccc(-n3cnc4cc(C(=O)OCCO)ccc43)c2)CC1 (as salt: HCl)	103 to 125 °C	
CSCCOC(=O)c1ccc2c(c1)ncn2-c1cccc(N2CCN(C)CC2)c1	121 to 122 °C	
CC(=O)N1CCN(CCOC(=O)c2cccc(-n3cnc4cc(-c5ccoc5)ccc43)c2)CC1 (as salt: HCl) [Compound 7j, 2-(1-Acetyl-4-piperazinyl)-ethyl 3-(5-(3-furanyl)-1-benzimidazolyl)-benzoate]	167 to 168 °C	

The next lines start with results.

melting point	SMILES	further results
211 to 212 °C	COCCOC(=O)c1ccc2c(c1)ncn2-c1cccc(N2CCN(CC(N)=O)CC2)c1 (as salt: HCl)	
185 to 186 °C	COCCOC(=O)c1ccc2c(c1)ncn2-c1cccc(N2CCN(Cc3ccc(Cl)s3)CC2)c1 (as salt: HCl)	
91 to 93 °C	COCCOC(=O)c1ccc2c(c1)ncn2-c1cccc(N2CCN(CC#N)CC2)c1	
202 to 204 °C	CCN(CC)C(=O)CN1CCN(c2cccc(-n3cnc4cc(C(=O)OCCOC)ccc43)c2)CC1 (as salt: HCl)	
150 to 155 °C	COC(=O)CN1CCN(c2cccc(-n3cnc4cc(C(=O)OCCO)ccc43)c2)CC1 (as salt: HCl)	
172 to 177 °C	COCCOC(=O)c1ccc2c(c1)ncn2-c1cccc(N2CCN(Cc3ccccc3)CC2)c1 (as salt: HCl)	
136 to 137 °C	COCCOC(=O)c1ccc2c(c1)ncn2-c1cccc(N2CCN(C)CC2)c1 (as salt: maleate)	
128 to 139 °C	CN1CCN(c2cccc(-n3cnc4cc(C(=O)OCCO)ccc43)c2)CC1 (as salt: HCl)	
268 to 270 °C	NC(=O)CN1CCN(c2cccc(-n3cnc4cc(C(=O)OCCO)ccc43)c2)CC1 (as salt: HCl)	
166 to 168 °C	CCN1CCN(c2cccc(-n3cnc4cc(C(=O)OCCOC)ccc43)c2)CC1 (as salt: HCl)	
218 to 224 °C	COCCOC(=O)c1ccc2c(c1)ncn2-c1cccc(N2CCN(CC(=O)OC(C)(C)C)CC2)c1 (as salt: HCl)	
155 to 159 °C	COCCOC(=O)c1ccc2c(c1)ncn2-c1cccc(N2CCN(CC(=O)OC(C)C)CC2)c1 (as salt: HCl)	
182 to 192 °C	O=C(OCCO)c1ccc2c(c1)ncn2-c1cccc(N2CCN(CCO)CC2)c1 (as salt: HCl)	
47 °C (dec.)	CN(C)CCOC(=O)c1ccc2c(c1)ncn2-c1cccc(N2CCN(CC(=O)O)CC2)c1	
161 to 164 °C	COCCOC(=O)c1ccc2c(c1)ncn2-c1cccc(N2CCN(CC(=O)OC)CC2)c1 (as salt: HCl)	
191 to 205 °C	COCCOC(=O)c1ccc2c(c1)ncn2-c1cccc(N2CCNCC2)c1 (as salt: HCl)	
105 to 110 °C	COCCOC(=O)c1ccc2c(c1)ncn2-c1cccc(N2CCN(CC(=O)O)CC2)c1	
139 to 141 °C	COCCOC(=O)c1ccc2c(c1)ncn2-c1cccc(N2CCN(CCOCc3ccccc3)CC2)c1 (as salt: HCl)	
196 to 198 °C	COCCOC(=O)c1ccc2c(c1)ncn2-c1cccc(N2CCN(Cc3nnnn3C)CC2)c1 (as salt: HCl)	
